The source of these data is ChEMBL document CHEMBL3046897, “Synthesis of 3-{4-[4-dimethylamino-6-(4-methyl-2-oxo-2H-chromen-7-yloxy)-[1,3,5]triazin-2-ylamino]-phenyl}-2-phenyl-5-(4-pyridin-2-yl-piperazin-1-ylmethyl)-thiazolidin-4-one and their biological evaluation” (2012).

Structures are written as SMILES. In brackets after ≈: the same amount, converted by molar mass. Activity calls are given as the source filed them. A value given as a limit tells only on which side of the number the result lay.

In general, MIC refers to the smallest concentration in the dilution series that meets the test's criterion for growth inhibition. A high value points to a need for much substance.

Assay [1] has as its system Salmonella typhi. In words: Antibacterial activity against Salmonella enterica subsp. enterica serovar Typhi at 100 ug/ml after 24 hr by agar streak dilution method. In kind it is functional, organism-based.
The subject of assay [2] is Escherichia coli. In words: Antibacterial activity against Escherichia coli at 100 ug/ml after 24 hr by agar streak dilution method. In kind it is functional, organism-based.
Assay [3] relates to Shigella flexneri. Nature of the assay: Antibacterial activity against Shigella flexneri after 24 hr by agar streak dilution method. The assay is classed as functional.
Assay [4] has as its system Klebsiella pneumoniae. In words: Antibacterial activity against Klebsiella pneumoniae after 24 hr by agar streak dilution method. The assay is classed as functional.
For assay [5], the system named is Aspergillus clavatus. Nature of the assay: Antifungal activity against Aspergillus clavatus at 100 ug/disc after 48 hr by paper disk diffusion method. The settings on record: read-out: IZ. In kind it is functional. In general terms: A growth-free zone around the sample is the usual read-out of agar diffusion tests.
The test system of assay [6] is Aspergillus fumigatus. Nature of the assay: Antifungal activity against Aspergillus fumigatus at 100 ug/disc after 48 hr by paper disk diffusion method. In kind it is functional. The settings on record: read-out: IZ.
The test system of assay [7] is Aspergillus niger. In words: Antifungal activity against Aspergillus niger at 100 ug/disk after 48 hr by paper disk diffusion method. In kind it is functional. The settings on record: read-out: IZ.
In another assay the test system is Proteus vulgaris. In words: Antibacterial activity against Proteus vulgaris at 100 ug/ml after 24 hr by agar streak dilution method. The assay is classed as functional, organism-based.
Another assay concerns Candida albicans. In words: Antifungal activity against Candida albicans at 100 ug/ml after 48 hr by agar streak dilution method. The assay is classed as functional, organism-based.
Assay [8] has as its system Aspergillus clavatus. Nature of the assay: Antifungal activity against Aspergillus clavatus after 48 hr by agar streak dilution method. In kind it is functional.
Assay [9] has as its system Aspergillus niger. Nature of the assay: Antifungal activity against Aspergillus niger after 48 hr by agar streak dilution method. The assay is classed as functional.
The test system of assay [10] is Pseudomonas aeruginosa. Nature of the assay: Antibacterial activity against Pseudomonas aeruginosa after 24 hr by agar streak dilution method. The assay is classed as functional.
Assay [11] has as its system Shigella flexneri. Nature of the assay: Antibacterial activity against Shigella flexneri at 100 ug/disc after 24 hr by paper disk diffusion method. The settings on record: read-out: IZ. In kind it is functional.
Assay [12] deals with Klebsiella pneumoniae. Nature of the assay: Antibacterial activity against Klebsiella pneumoniae at 100 ug/disk after 24 hr by paper disk diffusion method. In kind it is functional. The settings on record: read-out: IZ.
Assay [13] concerns Pseudomonas aeruginosa. Nature of the assay: Antibacterial activity against Pseudomonas aeruginosa at 100 ug/disk after 24 hr by paper disk diffusion method. The settings on record: read-out: IZ. The assay is classed as functional.
Assay [14] deals with Bacillus subtilis. In words: Antibacterial activity against Bacillus subtilis after 24 hr by agar streak dilution method. The assay is classed as functional.
The test system of assay [15] is Staphylococcus aureus. Nature of the assay: Antibacterial activity against Staphylococcus aureus after 24 hr by agar streak dilution method. The assay is classed as functional.
In assay [16] the test system is Bacillus subtilis. Nature of the assay: Antibacterial activity against Bacillus subtilis at 100 ug/disk after 24 hr by paper disk diffusion method. The settings on record: read-out: IZ. The assay is classed as functional.
The test system of assay [17] is Staphylococcus aureus. Nature of the assay: Antibacterial activity against Staphylococcus aureus at 100 ug/disc after 24 hr by paper disk diffusion method. The assay is classed as functional. The settings on record: read-out: IZ.
Assay [18] relates to Aspergillus fumigatus. In words: Antifungal activity against Aspergillus fumigatus after 48 hr by agar streak dilution method. In kind it is functional.
The test system of assay [19] is Pseudomonas aeruginosa. In words: Antibacterial activity against Pseudomonas aeruginosa at 100 ug/ml after 24 hr by agar streak dilution method. The assay is classed as functional, organism-based.
Assay [20] concerns Salmonella typhi. Nature of the assay: Antibacterial activity against Salmonella enterica subsp. enterica serovar Typhi after 24 hr by agar streak dilution method. The assay is classed as functional.
Assay [21] has as its system Escherichia coli. In words: Antibacterial activity against Escherichia coli after 24 hr by agar streak dilution method. The assay is classed as functional.
Assay [22] relates to Salmonella typhi. Nature of the assay: Antibacterial activity against Salmonella enterica subsp. enterica serovar Typhi at 100 ug/disk after 24 hr by paper disk diffusion method. In kind it is functional. The settings on record: read-out: IZ.
The test system of assay [23] is Escherichia coli. In words: Antibacterial activity against Escherichia coli at 100 ug/disk after 24 hr by paper disk diffusion method. The assay is classed as functional. The settings on record: read-out: IZ.
Assay [24] concerns Klebsiella pneumoniae. Nature of the assay: Antibacterial activity against Klebsiella pneumoniae at 100 ug/ml after 24 hr by agar streak dilution method. In kind it is functional, organism-based.
Assay [25] has as its system Shigella flexneri. Nature of the assay: Antibacterial activity against Shigella flexneri at 100 ug/ml after 24 hr by agar streak dilution method. In kind it is functional, organism-based.
Assay [26] relates to Aspergillus fumigatus. Nature of the assay: Antifungal activity against Aspergillus fumigatus at 100 ug/ml after 48 hr by agar streak dilution method. The assay is classed as functional, organism-based.

Take `Cc1cc(=O)oc2cc(Oc3nc(Nc4ccc(/N=C/c5ccccc5C(=O)O)cc4)nc(N(C)C)n3)ccc12`: the outcome with Salmonella typhi [1], in the assay on Escherichia coli [2], in the assay with Proteus vulgaris and with Candida albicans was inactive. Further, the MIC in the assay with Shigella flexneri [3], against Klebsiella pneumoniae [4], against Aspergillus clavatus [8], in the assay with Aspergillus niger [9], against Pseudomonas aeruginosa [10] and with Bacillus subtilis [14] was 100 µg/mL (≈ 186 µM) in each case. In addition, the MIC against Staphylococcus aureus [15] and in the assay on Aspergillus fumigatus [18] was 100 µg/mL (≈ 186 µM) throughout. The zone of inhibition at 100 µg/disc in the assay on Aspergillus clavatus [5] was less than 10 mm; with Aspergillus fumigatus [6] it was less than 10 mm; in the assay on Aspergillus niger [7] it was 10 mm; in the assay with Shigella flexneri [11], 11 mm; in the assay with Klebsiella pneumoniae [12], less than 10 mm; with Pseudomonas aeruginosa [13], 11 mm. The results for the zone of inhibition at 100 µg/disc in the assay with Bacillus subtilis [16] and with Staphylococcus aureus [17] were 11 mm and 13 mm, respectively.
For `Cc1cc(=O)oc2cc(Oc3nc(Nc4ccc(/N=C/c5ccc([N+](=O)[O-])cc5)cc4)nc(N(C)C)n3)ccc12`, the result in the assay with Pseudomonas aeruginosa [19], in the assay with Proteus vulgaris and in the assay on Candida albicans was inactive. The MIC with Shigella flexneri [3], with Salmonella typhi [20], with Klebsiella pneumoniae [4], with Aspergillus clavatus [8], in the assay with Aspergillus niger [9] and in the assay on Escherichia coli [21] was 100 µg/mL (≈ 186 µM) in each case. For the same molecule, the MIC in the assay with Bacillus subtilis [14], in the assay on Staphylococcus aureus [15] and in the assay with Aspergillus fumigatus [18] was 100 µg/mL (≈ 186 µM) throughout. The zone of inhibition at 100 µg/disc is 13 mm with Aspergillus clavatus [5]; less than 10 mm with Aspergillus fumigatus [6]; less than 10 mm in the assay with Aspergillus niger [7]; less than 10 mm in the assay with Shigella flexneri [11]; 13 mm in the assay with Salmonella typhi [22]; less than 10 mm with Klebsiella pneumoniae [12]. Besides, the zone of inhibition at 100 µg/disc in the assay with Escherichia coli [23], in the assay on Bacillus subtilis [16] and with Staphylococcus aureus [17] was less than 10 mm in each case.
Turning to `Cc1cc(=O)oc2cc(Oc3nc(Nc4ccc(/N=C/c5ccccc5)cc4)nc(N(C)C)n3)ccc12`, the result in the assay on Klebsiella pneumoniae [24], in the assay with Shigella flexneri [25], in the assay with Proteus vulgaris, in the assay with Candida albicans and in the assay with Aspergillus fumigatus [26] was inactive. Also, the MIC with Salmonella typhi [20], with Aspergillus clavatus [8], with Aspergillus niger [9], in the assay with Pseudomonas aeruginosa [10], against Escherichia coli [21] and in the assay on Bacillus subtilis [14] was 100 µg/mL (≈ 203 µM) throughout. For the same molecule, the MIC in the assay on Staphylococcus aureus [15] stood at 100 µg/mL (≈ 203 µM). Also, the zone of inhibition at 100 µg/disc in the assay on Aspergillus clavatus [5] is less than 10 mm; in the assay with Aspergillus niger [7], less than 10 mm; with Salmonella typhi [22] it was less than 10 mm; with Pseudomonas aeruginosa [13], 12 mm; with Escherichia coli [23] it was less than 10 mm; with Bacillus subtilis [16], 10 mm. In addition, the zone of inhibition at 100 µg/disc in the assay on Staphylococcus aureus [17] came out at 11 mm.
